Measurements published in article PMC10714400, “Antimicrobial Peptide–Peptoid Hybrids with and without Membrane Disruption” (ACS Infectious Diseases, 2023).
Converted amounts (≈) assume the structure as drawn. Where a SMILES comes first, the peptide text is derived from it. [ ]: non-standard residue; d: D form. Nleu = CC(C)CNCC(=O)O; Nlys = NCCCCNCC(=O)O

Key:
[1] = Circular dichroism, α-helical content; assay type: physicochemical; details: 0.1 mg/mL; for CD %α with 5 mM DPC: 10 mM phosphate buffer pH 7.4, 5 mM DPC; for CD %α with 20% TFE: 10 mM phosphate buffer pH 7.4, 20% TFE
[2] = test system: human red blood cells (hRBC); test: Minimum hemolytic concentration (MHC); assay type: cell-based
From the text: We also measured minimal hemolysis concentrations (MHC) on human red blood cells by serial 2-fold dilution as an indication of toxicity against eukaryotic cells (Table 1).

[3] = Lipid vesicle leakage assay; details: 10 mM TRIS, 107 mM NaCl, pH 7.4
Procedure: (c) Vesicle leakage assay for a selection of compounds.
EYPG - EB11 1 EYPC - EB11
Figure S2: Vesicle leakage experiments using 5(6)-carboxyfluorescein induced by peptides. EYPG and EYPC
compound was added after 45 sec. After 240 seconds, 30 µL Triton X-100 1.2% was added for full release of […]

[4] = test system: S. aureus Newman; details: Table S3; […] MH at pH 8.5
Procedure: (§1) Antimicrobial activity was assayed for all the peptide–peptoids against P. aeruginosa PAO1, K. pneumoniae NCTC418, E. coli W3110, A. baumannii ATCC 19606, methicillin-resistant S. aureus COL (MRSA), and for selected peptides on P. aeruginosa PA14 and the polymyxin-B-resistant derivatives PA14 4.13, PA14 4.18, PA14 2P4, as well as the clinical isolates ZEM-1A and ZEM9A, K. pneumoniae OXA-48, S. aureus Newman, Enterobacter cloacae, Stenotrophomonas maltophilia, Burkholderia cenocepacia, and Staphylococus epidermidis. To determine the Minimal Inhibitory Concentration (MIC), the Broth Microdilution method was used.[72] A colony of bacteria was picked and grown in LB medium overnight at 37 °C.
(§2) To each well was finally added 4 μL of the diluted bacterial suspension (see above), corresponding to approximately 5 × 10^5 CFU. For each test, two columns of the plate were kept for sterility control (medium only), growth control (medium with bacterial inoculum, no compound). The positive control, Polymyxin B (starting with a concentration of 16 μg/mL) in MH medium with bacterial inocula, was introduced in the two lines of the plate. […] Next, 15 μL of 3-(4,5-dimethylthiazol-2-yl)-2,5-diphenyltetrazolium bromide (MTT)[73] (1 mg/mL in sterilized MilliQ deionized water) were added to each well, and the plates were incubated for 20–30 min at room temperature. The minimal inhibitory concentration (MIC) was defined as the lowest concentration of the compound that inhibits the visible growth of the tested bacteria (yellow) with the unaided eye.

[5] = test system: P. aeruginosa PA14; details: Table S3; […] MH at pH 8.5, 16-20 hours at 37 °C
Procedure: as §1, §2

[6] = test system: PA14 4.13 (phoQ); details: CSV; […] MH at pH 8.5
Procedure: as §1
(§3) To each well was finally added 4 μL of the diluted bacterial suspension (see above), corresponding to approximately 5 × 10^5 CFU. For each test, two columns of the plate were kept for sterility control (medium only), growth control (medium with bacterial inoculum, no compound). The positive control, Polymyxin B (starting with a concentration of 16 μg/mL) in MH medium with bacterial inocula, was introduced in the two lines of the plate. The plates were incubated at 37 °C for ca. 18 h under static conditions. Next, 15 μL of 3-(4,5-dimethylthiazol-2-yl)-2,5-diphenyltetrazolium bromide (MTT)[73] (1 mg/mL in sterilized MilliQ deionized water) were added to each well, and the plates were incubated for 20–30 min at room temperature. The minimal inhibitory concentration (MIC) was defined as the lowest concentration of the compound that inhibits the visible growth of the tested bacteria (yellow) with the unaided eye.

[7] = test system: S. aureus COL (MRSA)
Procedure: as §1, §3

[8] = test system: A. baumannii ATCC19606
Procedure: as §1, §3

[9] = test system: K. pneumoniae NCTC418
Procedure: as §1, §3

[10] = test system: PA14 2P4 (pmrB); details: CSV; […] MH at pH 8.5
Procedure: as §1, §3

[11] = test system: PA14 4.18 (pmrB); details: CSV; […] MH at pH 8.5
Procedure: as §1, §3

[12] = test system: P. aeruginosa PAO1
Procedure: as §1, §3

[13] = test system: E. coli W3110
Procedure: as §1, §3

CC(C)C[C@H](NC(=O)CN(CC(C)C)C(=O)[C@H](CCCCN)NC(=O)CNCCCCN)C(=O)N(CCCCN)CC(=O)N[C@@H](CC(C)C)C(=O)N(CC(=O)N[C@@H](CCCCN)C(=O)N(CC(=O)N[C@@H](CC(C)C)C(=O)N(CC(N)=O)CC(C)C)CC(C)C)CC(C)C [EB10, kKlLkLlKlLl] (H-[Nlys]K[Nleu]L[Nlys]L[Nleu]K[Nleu]L[Nleu]-NH2)
CD %α with 5 mM DPC ([1]; DichroWeb, Contin-LL): 11/11% | CD %α with 20% TFE ([1]; DichroWeb, Contin-LL): 11/11% | CD %α with 5 mM DPC ([1]; Table S2): 11% | CD %α with 20% TFE ([1]; Table S2): 11% | Hemolysis [2]: none of them showed any measurable hemolysis | MHC [2]: >2000 µg/mL | Vesicle leakage activity on EYPC vesicles ([3]; egg yolk phosphatidyl choline vesicles): no activity | Vesicle leakage activity on EYPG vesicles ([3]; fluorescein-loaded anionic EYPG vesicles): weak or no vesicle leakage activity | MIC S. aureus Newman [4]: 8 µg/mL (≈ 6.05 µM) | MIC P. aeruginosa PA14 [5]: 4 µg/mL (≈ 3.03 µM) | MIC P. aeruginosa PA14 4.13, […] MH at pH 8.5 [6]: 4 ug/mL | MIC S. aureus COL (MRSA), full MH at pH 7.4 ([7]; COL, 4 h, pH 7.4): >32 ug/mL | MIC S. aureus COL (MRSA) […] 7.4 ([7]; Table S2, […] MH, pH 7.4): 32 µg/mL (≈ 24.2 µM) | MIC S. aureus COL (MRSA) […] 8.5 ([7]; Table S2, […] MH, pH 8.5): 8 µg/mL (≈ 6.05 µM) | MIC S. aureus COL (MRSA) Full MH 7.4 ([7]; Table S2, full MH, pH 7.4): > 32 µg/mL | MIC S. aureus COL (MRSA) Full MH 8.5 ([7]; Table S2, full MH, pH 8.5): 32 µg/mL (≈ 24.2 µM) | MIC A. baumannii ATCC19606, full MH at pH 7.4 ([8]; ATCC19606, 4 h, pH 7.4): >32 ug/mL | MIC A. baumannii ATCC19606, full MH at pH 8.5 ([8]; ATCC19606, 4 h, pH 8.5): >32 ug/mL | MIC A. baumannii ATCC19606 […] 7.4 ([8]; Table S2, […] MH, pH 7.4): 16 µg/mL (≈ 12.1 µM) | MIC A. baumannii ATCC19606 Full MH 7.4 ([8]; Table S2, full MH, pH 7.4): > 32 µg/mL | MIC A. baumannii ATCC19606 Full MH 8.5 ([8]; Table S2, full MH, pH 8.5): > 32 µg/mL | MIC K. pneumoniae NCTC418, full MH at pH 7.4 ([9]; NCTC418, 4 h, pH 7.4): >32 ug/mL | MIC K. pneumoniae NCTC418, full MH at pH 8.5 ([9]; NCTC418, 4 h, pH 8.5): >32 ug/mL | MIC K. pneumoniae NCTC418 […] 7.4 ([9]; Table S2, […] MH, pH 7.4): > 32 µg/mL | MIC K. pneumoniae NCTC418 […] 8.5 ([9]; Table S2, […] MH, pH 8.5): 32 µg/mL (≈ 24.2 µM) | MIC K. pneumoniae NCTC418 Full MH 7.4 ([9]; Table S2, full MH, pH 7.4): > 32 µg/mL | MIC K. pneumoniae NCTC418 Full MH 8.5 ([9]; Table S2, full MH, pH 8.5): > 32 µg/mL | MIC P. aeruginosa PA14 2P4, […] MH at pH 8.5 [10]: 8 ug/mL | MIC P. aeruginosa PA14 4.18, […] MH at pH 8.5 [11]: 8 ug/mL | MIC P. aeruginosa PAO1, full MH at pH 7.4 ([12]; PAO1, 4 h, pH 7.4): >32 ug/mL | MIC P. aeruginosa PAO1, full MH at pH 8.5 ([12]; PAO1, 4 h, pH 8.5): >32 ug/mL | MIC P. aeruginosa PAO1 […] 7.4 ([12]; Table S2, […] MH, pH 7.4): 4 µg/mL (≈ 3.03 µM) | MIC P. aeruginosa PAO1 […] 8.5 ([12]; Table S2, […] MH, pH 8.5): 4 µg/mL (≈ 3.03 µM) | MIC P. aeruginosa PAO1 Full MH 7.4 ([12]; Table S2, full MH, pH 7.4): > 32 µg/mL | MIC P. aeruginosa PAO1 Full MH 8.5 ([12]; Table S2, full MH, pH 8.5): > 32 µg/mL | MIC E. coli W3110, […] MH at pH 8.5 ([13]; CSV, […] MH at pH 8.5): 3 ug/mL | MIC E. coli W3110, full MH at pH 7.4 ([13]; CSV, full MH at pH 7.4): >32 ug/mL | MIC E. coli W3110 […] 7.4 ([13]; Table S2, […] MH, pH 7.4): 2 µg/mL (≈ 1.51 µM) | MIC E. coli W3110 […] 8.5 ([13]; Table S2, […] MH, pH 8.5): 2 to 4 µg/mL | MIC E. coli W3110 Full MH 7.4 ([13]; Table S2, full MH, pH 7.4): > 32 µg/mL | MIC E. coli W3110 Full MH 8.5 ([13]; Table S2, full MH, pH 8.5): 32 µg/mL (≈ 24.2 µM) | MIC E. coli W3110 […] ([13]; diluted MH ([…] MH, pH 8.5) per Table 1 footnote b, 16–20 h at 37 °C): 2 to 4 µg/mL
